How the values were obtained:
human LFA-1 = target: T1, human LFA-1 (Homo sapiens, UniProt P20701); assay: Cell free assay: binding of soluble human ICAM-1 to immobilized human LFA-1
T1 construct: endogenous in cells; host or cells: JY cells (human lymphoblastoid B cell line)
Protocol: A. In Vitro: Cell Free Assay
The assay measures the binding of soluble human ICAM-1 to immobilized human LFA-1. LFA-1 is purified from JY cells, a human lymphoblastoid B cell-line, by immunoaffinity chromatography as described by Dustin et al. (J. Immunol. 148, 2654-2663, 1992). ICAM-1 mouse Cκ fusion protein (ICAM-1) is produced using the baculovirus system as described by Weitz-Schmidt et al. (Anal. Biochem.238, 184-190, 1996).
Purified LFA-1 is diluted 1:20 in phosphate buffered saline (PBS) containing 2 mM MgCl2, pH 7.4 and coated onto microtitre plates (Nunc) at 37° C. for 3 h. Plates are blocked with 1% heat-treated BSA in PBS for 2 hours at 37° C. followed by a washing step using PBS, 2 mM MgCl2, 1% fetal calf serum, pH 7.4 (assay buffer). Compounds dissolved at 10 mM in DMSO are diluted in assay buffer and added to the plates. Biotinylated recombinant ICAM-1 in assay buffer (6 μg/ml) is added and allowed to bind at 37° C. for one hour. After incubation, wells are washed with assay buffer. Streptavidin-peroxidase diluted 1:5000 in assay buffer is added and incubated for 45 min at 37° C. Plates are then washed with assay buffer and 2,2′-azino-bis(3-ethylbenzothiazoline-6 sulfonic acid) diammonium salt substrate solution is added to each well. The reaction is stopped after 20 min and bound ICAM-1 is determined by measuring the optical density at 405 nm in a microplate reader.

[1] = test system: mBSA antigen-induced arthritis; assay: Mouse antigen-induced arthritis model; format: in vivo, OFA-1 mice; settings: about 0.3 to 30 mg/kg p.o.
Protocol: iv) Mouse Antigen-induced Arthritis Model The test for rheumatoid arthritis is carried out by a modification of that described by Van de Loo et al., Arthritis Rheum. 1995; 35:164-172, e.g., as follows: Female OFA-1 mice are sensitised intradermally on the back at two sites to methylated bovine serum albumin (mBSA) homogenised 1:1 with complete Freund's adjuvant on days −21 and −14 (0.1 ml containing 1 mg/ml mBSA). On day 0, the right knee receives 10 μl of 10 mg/ml mBSA in 5% glucose solution (antigen injected knee), while the left knee receives 10 μl of 5% glucose solution alone (vehicle injected knee). The diameters of the left and right knees are then measured using calipers immediately after the intra-articular injections and again on days 2, 4, 7, 9, 11 and 14. […] Right knee swelling is calculated as a ratio of left knee swelling, and the R/L knee swelling ratio plotted against time to give Area Under the Curve (AUC) graphs for control and treatment groups. The percentage inhibition of the individual treatment group AUCs are calculated vs the control group AUC (0% inhibition) using an Excel spreadsheet. […] After staining, the slides are number coded as left knee/right knee pairs from each animal and scored in a blinded fashion for inflammatory cell infiltrate/hyperplasia, joint damage/erosions and cartilage proteoglycan loss.

carrageenan paw swelling = assay: Rat carrageenan edema model; format: in vivo, OFA rats; settings: about 0.3 to 30 mg/kg p.o.
Protocol: iii) Rat Carrageenan Edema Model Male OFA rats are treated orally with the compound to be tested or vehicle (saline). One to three hours later (0 hours) the rats receive a 100 μl intra-plantar injection of a 1% w/v carrageenan solution in 0.9% saline in the hind paw and the diameter of the paw is measured by means of a micro-calliper. The paw diameter measurements are repeated at times +3 and +5 hours after injection of the carrageenan.

T1 sequence (P20701 26-1170): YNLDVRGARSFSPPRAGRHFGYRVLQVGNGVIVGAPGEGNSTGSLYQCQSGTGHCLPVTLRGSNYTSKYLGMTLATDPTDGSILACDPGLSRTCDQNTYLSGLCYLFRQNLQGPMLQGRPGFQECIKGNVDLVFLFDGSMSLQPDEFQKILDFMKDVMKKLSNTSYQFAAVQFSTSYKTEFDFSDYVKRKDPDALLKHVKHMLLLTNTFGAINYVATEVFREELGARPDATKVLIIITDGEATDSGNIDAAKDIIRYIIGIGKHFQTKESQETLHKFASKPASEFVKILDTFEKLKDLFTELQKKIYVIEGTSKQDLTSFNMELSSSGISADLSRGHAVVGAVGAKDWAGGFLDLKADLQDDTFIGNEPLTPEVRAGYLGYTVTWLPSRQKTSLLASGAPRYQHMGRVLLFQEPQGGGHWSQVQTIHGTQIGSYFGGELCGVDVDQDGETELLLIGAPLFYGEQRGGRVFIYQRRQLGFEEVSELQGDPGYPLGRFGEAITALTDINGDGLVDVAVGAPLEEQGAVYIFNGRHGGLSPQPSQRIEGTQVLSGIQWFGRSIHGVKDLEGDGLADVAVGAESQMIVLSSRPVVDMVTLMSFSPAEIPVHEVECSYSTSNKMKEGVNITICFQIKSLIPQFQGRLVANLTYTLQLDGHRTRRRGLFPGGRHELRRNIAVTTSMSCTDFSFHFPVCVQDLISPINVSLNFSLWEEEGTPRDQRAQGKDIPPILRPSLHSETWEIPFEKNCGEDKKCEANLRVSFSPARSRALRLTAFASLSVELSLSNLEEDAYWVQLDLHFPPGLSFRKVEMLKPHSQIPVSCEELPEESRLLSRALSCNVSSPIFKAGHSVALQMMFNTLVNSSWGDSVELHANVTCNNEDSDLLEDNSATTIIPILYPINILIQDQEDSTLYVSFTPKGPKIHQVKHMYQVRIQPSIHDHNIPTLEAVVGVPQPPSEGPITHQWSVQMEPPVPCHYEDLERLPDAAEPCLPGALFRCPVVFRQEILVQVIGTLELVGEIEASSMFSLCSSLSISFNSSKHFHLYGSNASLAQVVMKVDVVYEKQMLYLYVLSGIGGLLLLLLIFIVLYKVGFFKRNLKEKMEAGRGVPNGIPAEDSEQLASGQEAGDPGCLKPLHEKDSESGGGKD
T1 sequence (P05107 23-769 partner): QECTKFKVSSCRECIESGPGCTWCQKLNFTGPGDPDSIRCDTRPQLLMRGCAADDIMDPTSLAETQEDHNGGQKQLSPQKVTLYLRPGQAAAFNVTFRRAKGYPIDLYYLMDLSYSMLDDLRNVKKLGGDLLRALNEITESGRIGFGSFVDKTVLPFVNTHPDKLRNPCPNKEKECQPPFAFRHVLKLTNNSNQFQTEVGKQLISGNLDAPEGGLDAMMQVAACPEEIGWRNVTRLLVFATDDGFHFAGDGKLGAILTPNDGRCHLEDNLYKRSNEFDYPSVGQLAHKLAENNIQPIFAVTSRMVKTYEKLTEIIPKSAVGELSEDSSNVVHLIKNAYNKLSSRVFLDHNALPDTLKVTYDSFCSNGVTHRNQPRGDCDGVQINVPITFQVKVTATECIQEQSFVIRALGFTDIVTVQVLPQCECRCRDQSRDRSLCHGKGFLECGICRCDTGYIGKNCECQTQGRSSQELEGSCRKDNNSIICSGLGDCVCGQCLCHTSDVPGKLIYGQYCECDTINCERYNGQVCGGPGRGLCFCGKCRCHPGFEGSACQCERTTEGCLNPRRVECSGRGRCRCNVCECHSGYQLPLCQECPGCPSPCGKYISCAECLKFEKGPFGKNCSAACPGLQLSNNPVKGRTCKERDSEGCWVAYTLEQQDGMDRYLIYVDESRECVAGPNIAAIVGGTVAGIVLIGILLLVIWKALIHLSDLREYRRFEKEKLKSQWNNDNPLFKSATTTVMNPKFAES

In the case of `CNC(=O)[C@H](Cc1ccc2ccccc2c1)N1CCC(=O)N(Cc2cnc3ccccc3c2)[C@@H](CC(C)C)C1=O` [Example 1, 1H-1,4-Diazepine-1-acetamide, hexahydro-N-methyl-3-(2-methylpropyl)-α-[(2-naphthalenyl)methyl]-2,5-dioxo-4-[(3-quinolinyl)methyl]-, (αS,3S)-], the IC50 (human LFA-1) is reported as about 30 nM, the “inhibition of knee swelling” value [1] is reported as “inhibits knee swelling” and the “histological damage to the knee” value ([1]; day 14 histology) is reported as “significantly reduces the histological damage to the knee”. For the same compound, the “inhibition of paw swelling” value (carrageenan paw swelling) was “inhibits paw swelling”.

Source: patent US6642225B2, “Diazacycloalkanedione derivatives” (Novartis AG, priority 2000, dated 2003)
